Experimental data as given in patent US9957254B2, “Cyclohexen-1-yl-pyridin-2-yl-1h-pyrazole-4-carboxylic acid derivatives and the use thereof as soluble guanylate cyclase activators” (Novartis AG, priority 2014, dated 2018).

The compounds below were run against T1, soluble guanylate cyclase (Homo sapiens, UniProt Q02153) (assay: CHO cellular assay (cGMP production, Cisbio cGMP HTRF)). Details: CHO K1 cells overexpressing human GUCYA3/GUCYB3 (clone 8E10), 1 mM IBMX, 20 uM ODQ, 1 h room temperature, listed 0.5 nM means actual EC50 ≤0.5 nM (quantification limit).
T1 construct: expressed in transfected cells
T1 sequence (Q02108 whole entry partner): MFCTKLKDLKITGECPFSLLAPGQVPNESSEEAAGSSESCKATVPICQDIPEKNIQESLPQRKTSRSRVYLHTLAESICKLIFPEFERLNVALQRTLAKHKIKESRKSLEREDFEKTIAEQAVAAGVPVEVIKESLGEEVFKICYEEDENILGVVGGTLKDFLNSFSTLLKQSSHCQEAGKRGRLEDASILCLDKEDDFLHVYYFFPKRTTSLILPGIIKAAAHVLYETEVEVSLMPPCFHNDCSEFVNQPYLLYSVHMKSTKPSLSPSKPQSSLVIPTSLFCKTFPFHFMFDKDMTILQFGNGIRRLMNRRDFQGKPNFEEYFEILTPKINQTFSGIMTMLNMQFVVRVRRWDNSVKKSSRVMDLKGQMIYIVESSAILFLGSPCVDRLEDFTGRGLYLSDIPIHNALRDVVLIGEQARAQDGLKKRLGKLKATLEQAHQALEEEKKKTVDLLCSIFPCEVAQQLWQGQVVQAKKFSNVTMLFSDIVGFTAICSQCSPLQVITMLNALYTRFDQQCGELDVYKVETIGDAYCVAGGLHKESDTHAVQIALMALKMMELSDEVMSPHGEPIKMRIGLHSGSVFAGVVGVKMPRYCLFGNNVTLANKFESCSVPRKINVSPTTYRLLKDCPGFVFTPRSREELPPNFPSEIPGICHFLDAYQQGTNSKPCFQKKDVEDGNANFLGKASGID
T1 sequence (Q02153 whole entry): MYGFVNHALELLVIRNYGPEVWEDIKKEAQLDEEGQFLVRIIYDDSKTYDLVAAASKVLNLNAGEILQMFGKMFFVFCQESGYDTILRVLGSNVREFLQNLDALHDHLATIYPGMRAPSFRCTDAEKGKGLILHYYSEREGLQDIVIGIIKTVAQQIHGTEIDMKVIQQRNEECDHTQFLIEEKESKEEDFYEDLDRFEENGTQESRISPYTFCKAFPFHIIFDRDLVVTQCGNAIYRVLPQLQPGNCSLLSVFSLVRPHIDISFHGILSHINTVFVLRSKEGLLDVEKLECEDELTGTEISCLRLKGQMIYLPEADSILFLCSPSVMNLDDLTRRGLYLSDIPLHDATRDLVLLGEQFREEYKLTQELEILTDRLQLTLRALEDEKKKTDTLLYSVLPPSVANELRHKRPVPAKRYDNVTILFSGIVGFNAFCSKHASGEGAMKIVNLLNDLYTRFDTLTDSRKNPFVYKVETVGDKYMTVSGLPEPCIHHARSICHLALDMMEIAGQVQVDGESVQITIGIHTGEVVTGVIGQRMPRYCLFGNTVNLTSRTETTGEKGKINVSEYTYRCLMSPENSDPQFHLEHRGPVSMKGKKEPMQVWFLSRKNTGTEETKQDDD
Type: cell-based
Excerpt: Chinese hamster ovary (CHO) cells overexpressing soluble guanylate cyclase were generated to test the effect of sGC activators in a cellular context. Human cDNAs for GUCYA3 (RefSeq: NM_000856.3) and GUCYB3 (RefSeq: NM_000857.1) were amplified by PCR from a HUVEC (Human Umbilical Vein Endothelial Cells) cDNA library and cloned into mammalian expression vectors. CHO K1 cells (ATCC CCL-61) were transfected using Lipofectamine 2000 following manufacturer's instructions and stably expressing clones were identified by antibiotic selection. CHO GUCY clone 8E10 was used for subsequent experiments.
Cells were seeded at a density of 3000 cells/well in white 384-well proxyplates (Perkin Elmer) and incubated overnight, then the medium was removed and cells were washed with assay buffer (HBSS, 0.1% BSA, 1 mM IBMX, 20 uM ODQ). sGC activators were serially diluted in DMSO, then diluted in assay buffer prior to adding to cells (10 ul/well, final DMSO concentration 0.5%). Cells were incubated with compounds for 1 h room temperature, then assayed for cGMP production using Cisbio cGMP HTRF kit (62GM2PEC) according to manufacturer's instructions.
The EC50s are calculated based on the amount of cGMP interpolated from the standard curve, using a 4-parameter sigmoidal dose-response.
Compounds of invention are active on sGC activation. Data on Table 1 collected using the assay of Biological Example 1. The minimum EC50 quantification limit of the assay is 0.5 nM, therefore any compound listed as having an EC50 value of 0.5 nM has a actual EC50 of ≤0.5 nM.

EC50 [nM] | SMILES
5.5 | CCc1cc(C2CCN(C(=O)C3CC3)CC2)ccc1OCC1=C(c2cccc(-n3ncc(C(=O)O)c3C(F)(F)F)n2)CCCC1 [Example 8-1, 1-(6-(2-((4-(1-(cyclopropanecarbonyl)piperidin-4-yl)-2-ethylphenoxy)methyl)cyclohex-1-en-1-yl)pyridin-2-yl)-5-(trifluoromethyl)-1H-pyrazole-4-carboxylic acid]
34 | O=C(O)c1cnn(-c2cccc(C3=C(COc4ccc5c(c4)CCN(Cc4ccccn4)C5)CCCC3)n2)c1C(F)(F)F [Example 8-2, 1-(6-(2-(((2-(pyridin-2-ylmethyl)-1,2,3,4-tetrahydroisoquinolin-6-yl)oxy)methyl)cyclohex-1-en-1-yl)pyridin-2-yl)-5-(trifluoromethyl)-1H-pyrazole-4-carboxylic acid]
≤ 0.5 | CCc1c(C(=O)O)cnn1-c1cccc(C2=C(COc3ccc(C4CCN(C(=O)C5CC5)CC4)cc3C)CCCC2)n1 [Example 9, 1-(6-(2-((4-(1-(Cyclopropanecarbonyl)piperidin-4-yl)-2-methylphenoxy)methyl)cyclohex-1-en-1-yl)pyridin-2-yl)-5-ethyl-1H-pyrazole-4-carboxylic acid]
1 | Cc1cc(C2CCN(C(=O)C3CC3)CC2)ccc1OCC1=C(c2cccc(-n3ncc(C(=O)O)c3C(F)(F)F)c2)CCCC1 [Example 10, 1-(6′-((4-(1-(Cyclopropanecarbonyl)piperidin-4-yl)-2-methylphenoxy)methyl)-2′,3′,4′,5′-tetrahydro-[1,1-biphenyl]-3-yl)-5-(trifluoromethyl)-1H-pyrazole-4-carboxylic acid]
110 | Cc1cc(C2CCN(C(=O)CN)CC2)ccc1OCC1=C(c2cccc(-n3ncc(C(=O)O)c3C(F)(F)F)n2)CCCC1 [Example 11, 1-(6-(2-((4-(1-(2-Aminoacetyl)piperidin-4-yl)-2-methylphenoxy)methyl)cyclohex-1-en-1-yl)pyridin-2-yl)-5-(trifluoromethyl)-1H-pyrazole-4-carboxylic acid]
1 | CCc1cc(OCC2=C(c3cccc(-n4ncc(C(=O)O)c4C(F)(F)F)n3)CCCC2(C)C)ccc1C1CCN(C(=O)C2CC2)CC1 [Example 14, 1-(6-(2-((4-(1-(Cyclopropanecarbonyl)piperidin-4-yl)-3-ethylphenoxy)methyl)-3,3-dimethylcyclohex-1-en-1-yl)pyridin-2-yl)-5-(trifluoromethyl)-1H-pyrazole-4-carboxylic acid]
2.4 | Cc1cc(C2CCN(C(=O)C3CC3)CC2)ccc1OCC1=C(c2cccc(-n3ncc(C(=O)O)c3C(F)(F)F)n2)CCC1 [Example 21, 1-(6-(2-((4-(1-(Cyclopropanecarbonyl)piperidin-4-yl)-2-methylphenoxy)methyl)cyclopent-1-en-1-yl)pyridin-2-yl)-5-(trifluoromethyl)-1H-pyrazole-4-carboxylic acid]
3.5 | Cc1cc(C2CCN(C(=O)N(C)C)CC2)ccc1OCC1=C(c2cccc(-n3ncc(C(=O)O)c3C(F)(F)F)n2)CCC1 [Example 23, 1-(6-(2-((4-(1-(Dimethylcarbamoyl)piperidin-4-yl)-2-methylphenoxy)methyl)cyclopent-1-en-1-yl)pyridin-2-yl)-5-(trifluoromethyl)-1H-pyrazole-4-carboxylic acid]
19 | Cc1cc(C2CCN(C(=O)CO)CC2)ccc1OCC1=C(c2cccc(-n3ncc(C(=O)O)c3C(F)(F)F)n2)CCC1 [Example 24-1, 1-(6-(2-((4-(1-(2-hydroxyacetyl)piperidin-4-yl)-2-methylphenoxy)methyl)cyclopent-1-en-1-yl)pyridin-2-yl)-5-(trifluoromethyl)-1H-pyrazole-4-carboxylic acid]
2.4 | CCC(=O)N1CCC(c2ccc(OCC3=C(c4cccc(-n5ncc(C(=O)O)c5C(F)(F)F)n4)CCC3)c(C)c2)CC1 [Example 24-2, 1-(6-(2-((2-Methyl-4-(1-propionylpiperidin-4-yl)phenoxy)methyl)cyclopent-1-en-1-yl)pyridin-2-yl)-5-(trifluoromethyl)-1H-pyrazole-4-carboxylic acid]
22 | COC(=O)N1CCC(c2ccc(OCC3=C(c4cccc(-n5ncc(C(=O)O)c5C(F)(F)F)n4)CCC3)c(C)c2)CC1 [Example 24-3, 1-(6-(2-((4-(1-(Methoxycarbonyl)piperidin-4-yl)-2-methylphenoxy)methyl)cyclopent-1-en-1-yl)pyridin-2-yl)-5-(trifluoromethyl)-1H-pyrazole-4-carboxylic acid]
2.4 | Cc1cc(C2CCN(S(C)(=O)=O)CC2)ccc1OCC1=C(c2cccc(-n3ncc(C(=O)O)c3C(F)(F)F)n2)CCC1 [Example 24-4, 1-(6-(2-((2-Methyl-4-(1-(methylsulfonyl)piperidin-4-yl)phenoxy)methyl)cyclopent-1-en-1-yl)pyridin-2-yl)-5-(trifluoromethyl)-1H-pyrazole-4-carboxylic acid]
5 | Cc1cc(C2CCN(CC(F)(F)F)CC2)ccc1OCC1=C(c2cccc(-n3ncc(C(=O)O)c3C(F)(F)F)n2)CCC1 [Example 25, 1-(6-(2-((2-Methyl-4-(1-(2,2,2-trifluoroethyl)piperidin-4-yl)phenoxy)methyl)cyclopent-1-en-1-yl)pyridin-2-yl)-5-(trifluoromethyl)-1H-pyrazole-4-carboxylic acid]
≤ 0.5 | CCc1cc(NCC2=C(c3cccc(-n4ncc(C(=O)O)c4C(F)(F)F)n3)CCCC2)ccc1C1CCN(C(=O)C2CC2)CC1 [Example 26, 1-(6-(2-(((4-(1-(Cyclopropanecarbonyl)piperidin-4-yl)-3-ethylphenyl)amino)methyl)cyclohex-1-en-1-yl)pyridin-2-yl)-5-(trifluoromethyl)-1H-pyrazole-4-carboxylic acid]
2.4 | Cc1cc(C2CCN(C(=O)C3CC3)CC2)ccc1NCC1=C(c2cccc(-n3ncc(C(=O)O)c3C(F)(F)F)n2)CCCC1 [Example 27-1, 1-(6-(2-(((4-(1-(Cyclopropanecarbonyl)piperidin-4-yl)-2-methylphenyl)amino)methyl)cyclohex-1-en-1-yl)pyridin-2-yl)-5-(trifluoromethyl)-1H-pyrazole-4-carboxylic acid]
5 | O=C(O)c1cnn(-c2cccc(C3=C(CNc4ccc(C5CCN(C(=O)C6CC6)CC5)cc4)CCCC3)n2)c1C(F)(F)F [Example 27-2, 1-(6-(2-(((4-(1-(Cyclopropanecarbonyl)piperidin-4-yl)phenyl)amino)methyl)cyclohex-1-en-1-yl)pyridin-2-yl)-5-(trifluoromethyl)-1H-pyrazole-4-carboxylic acid]
